Key:
[1] = taken with meals; cited from earlier work
[2] = tested on: patients diagnosed with Alzheimer's disease of mild-to-moderate severity; test: T2 Protect AD trial: ADAS-Cog 11; format: in vivo, human; settings: for ADAS-Cog Total Score, Model Estimates, LSMean (SE): change from baseline; for ADAS-Cog Total Score, Model Estimates, LSMean (SE) Difference: placebo vs troriluzole
Description: (§1) The ADAS-Cog 11 evaluates memory (word recall, word recognition), reasoning (following commands), language (naming, comprehension), orientation, ideational praxis (placing a letter in an envelope) and constructional praxis (copying geometric designs). Ratings of spoken language, language comprehension, word finding difficulty, and ability to remember test instructions are also obtained. The test is scored in terms of errors, with higher scores reflecting poorer performance and greater impairment. Scores can range from 0 (best) to 70 (worse).
The primary efficacy endpoint is the within-participant change in ADAS-Cog 11 from baseline to week 48, compared between the treatment group and the placebo group.
as §1, with “11 (Rosen, Mohs, & Davis, 1984) is a structured scale that” for “11”
(§2) The T2 Protect AD trial has been conducted, which is a Phase 2/3, randomized, double-blind, placebo-controlled study evaluating the efficacy and safety of troriluzole in patients diagnosed with Alzheimer's disease of mild-to-moderate severity (Mini-Mental State Examination [MMSE] scores of 14-24; mild: 20-24, moderate: 14-19).

[3] = tested on: patients diagnosed with Alzheimer's disease of mild-to-moderate severity; test: T2 Protect AD trial: CDR-Sum of Boxes; format: in vivo, human; settings: Week 48; for CDR01-Sum of Boxes, Model Estimates, LSMean (SE) Difference: placebo vs troriluzole
Description: The CDR-SOB (Hughes, Berg, Danziger, Coben, & Martin, 1982) is a validated composite rating of cognition and everyday functioning used in longitudinal AD research which incorporates both informant input and direct assessment of performance. It assesses through semi structured interview 3 cognitive domains including memory, orientation, and judgement/problem solving and 3 everyday functional domains including community affairs, home and hobbies and personal care. There are 5 levels of impairment from none CDR=0 to severe CDR=3. The individual domain scores are added to create a sum of the box scores.
as §2

[4] = tested on: patients diagnosed with Alzheimer's disease of mild-to-moderate severity; test: T2 Protect AD trial: volumetric MRI hippocampal volume (Quarc); format: in vivo, human; settings: for Hippocampal Volume Change, Model Estimates, LSMean (SE) Difference: Week 48, placebo vs troriluzole
Description: vMRI allows the in vivo assessment of brain structure volume and provides a measure of atrophy rate. […] Atrophy of the medial temporal lobe, including hippocampus and entorhinal cortex, has long been described in vMRI studies of AD. Hippocampal volume derived from MRI correlates with histological hippocampal volume and degree of neuronal loss and AD pathology, and entorhinal cortical thickness change appears to be an early and sensitive indicator of neurodegeneration associated with AD (Holland et al., 2009; Jack et al., 2004).
Participants will undergo vMRI scans of the brain at screening, week 24 and week 48 in order to assess for changes in brain volumes that may be associated with clinical change due to treatment with BHV-4157.
Volumetric MRI scans will use the same imaging protocol, which will include a localizer scan, a 3D T1-weighted sagittal acquisition (MPRAGE or IR-SPGR), a T2-weighted FLAIR axial acquisition, a T2* gradient recalled echo axial acquisition for magnetic susceptibility, and a diffusion weighted axial acquisition to assess for restricted diffusion.
Images will be checked for image quality and adherence to scanning protocols. 3D T1-weighted datasets passing quality checks will be corrected for spatial distortion and for intensity variation. Screening and follow-up datasets for each participant will be spatially registered to one another using rigid-body registration followed by nonlinear registration and neuroanatomic parcellation to quantify whole-brain and subregional volumetric change on a patient-by patient basis.
Whole brain volume (WBV, excluding cerebellum), bilateral ventricular volume and bilateral hippocampal volume will be measured. Quantitative anatomical regional change (Quarc) will be used as the computational MR image processing application. Detail for the statistical computations is given in the Statistical Analytical Plan (SAP).
as §2

[5] = tested on: patients diagnosed with Alzheimer's disease of mild-to-moderate severity; test: T2 Protect AD trial: Neuropsychiatric Inventory (NPI); format: in vivo, human; settings: for NPI score LS mean change, difference versus placebo: after 48 weeks, troriluzole minus placebo
Description: The NPI is a well-validated, reliable, multi-item instrument to assess psychopathology in AD dementia based on the results of an interview with the study partner (Cummings, 1997). The NPI evaluates both the frequency and severity of 10 neuropsychiatric features, including delusions, hallucinations, agitation/aggression, dysphoria, anxiety, euphoria, apathy, disinhibition, irritability and lability, and aberrant motor behavior, as well as evaluates sleep and appetite/eating disorders. Frequency assessments range from 1 (occasionally, less than once per week) to 4 (very frequently, once or more per day or continuously). Severity assessments range from 1 (mild) to 3 (severe). The score for each subscale is the product of severity and frequency and the total score is the sum of all subscales.
as §2

[6] = Week 48, mild-to-moderate AD, 280 mg once daily
[7] = after 48 weeks, mild AD, placebo minus troriluzole

Compound: Nc1nc2ccc(OC(F)(F)F)cc2s1 [Riluzole, riluzole]
- food effect on exposure [1]: reduced exposure when taken with meals

Compound: CN(CC(=O)Nc1nc2ccc(OC(F)(F)F)cc2s1)C(=O)CNC(=O)CN [Troriluzole, troriluzole]
- ADAS-Cog Total Score, Model Estimates, LSMean (SE) ([2]; Week 48, mild AD patients only): 4.2
- ADAS-Cog Total Score, Model Estimates, LSMean (SE) [2, 6]: 6.7 (0.70)
- ADAS-Cog Total Score, Change from Baseline, Mean (SD) ([2]; Week 48, mild AD patients only): 3.9
- ADAS-Cog Total Score, Analysis Value, Mean (SD) ([2]; Week 48, mild AD patients only, 280 mg once daily): 26.2
- outcome on co-primary endpoint ADAS-cog ([2]; Week 48, mild-to-moderate AD): did not meet the study's pre-specified co-primary endpoints
- ADAS-Cog Total Score, Change from Baseline, Mean (SD) [2, 6]: 5.8 (7.40)
- ADAS-Cog Total Score, Change from Baseline, Median [2, 6]: 6.0
- ADAS-Cog Total Score, Model Estimates, LSMean (SE) Difference ([2]; Week 48, mild AD patients only): 0.7 (1.02)
- ADAS-Cog Total Score, Model Estimates, LSMean (SE) Difference ([2]; Week 48, mild-to-moderate AD): 0.0 (0.93)
- ADAS-Cog11 score LS mean change, difference versus placebo [2, 7]: 0.7 points
- outcome on co-primary endpoint CDR-SB ([3]; mild-to-moderate AD): did not meet the study's pre-specified co-primary endpoints
- CDR01-Sum of Boxes, Model Estimates, LSMean (SE) Difference ([3]; mild AD patients only): −0.3 (0.40)
- CDR01-Sum of Boxes, Model Estimates, LSMean (SE) Difference ([3]; mild-to-moderate AD): −0.2 (0.28)
- Hippocampal Volume Change, Model Estimates, LSMean (SE) Difference ([4]; mild AD patients only): −0.5 (0.38)
- Hippocampal Volume Change, Model Estimates, LSMean (SE) Difference ([4]; mild-to-moderate AD): 0.0 (0.26)
- hippocampal volume LS mean percent deformation change, difference versus placebo [4, 7]: −0.5%
- key secondary measure of hippocampal volume assessed by MRI, versus placebo ([4]; overall population): did not differentiate from placebo
- NPI across subgroups versus placebo ([5]; Week 48, only mild AD, only moderate AD, only ApoE4 positive, only ApoE4 negative patients): numerical differences of a potential benefit
- NPI score LS mean change, difference versus placebo ([5]; mild AD): −2.1 points
- NPI score LS mean change, difference versus placebo ([5]; mild-to-moderate AD): −1.5 points

Source: patent publication US20240082340A1 (Biohaven Therapeutics Ltd., priority 2021, published 2024)
